The text below walks through data of ChEMBL document CHEMBL3091363, “Discovery of N-{5-[3-(3-hydroxypiperidin-1-yl)-1,2,4-oxadiazol-5-yl]-4-methyl-1,3-thiazol-2-yl}acetamide (TASP0415914) as an orally potent phosphoinositide 3-kinase γ inhibitor for the treatment of inflammatory diseases” (Bioorg Med Chem, 2013).

In series [1] the target is Phosphatidylinositol 4,5-bisphosphate 3-kinase catalytic subunit gamma isoform (Homo sapiens, UniProt P48736). Nature of the series: Inhibition of human PI3Kgamma using PtdIns/PtdSer as substrate after 2 hrs by scintillation counting analysis in presence of gamma[33P]ATP.
In the next series the test system is Mus musculus. In words: Antiarthritic activity in po dosed DBA/1 mouse assessed as suppression of acute collagen-induced arthritis administered as bid for 14 days. Format: functional, organism-based.
Another series addresses Cytochrome P450 3A4 (Homo sapiens, UniProt P08684). Nature of the series: Inhibition of CYP3A4 (unknown origin) up to 10 uM. Format: ADME.
The next series concerns the target Cytochrome P450 2D6 (Homo sapiens, UniProt P10635). Nature of the series: Inhibition of CYP2D6 (unknown origin) up to 10 uM. Format: ADME.
The next series has as its target Cytochrome P450 2C19 (Homo sapiens, UniProt P33261). In words: Inhibition of CYP2C19 (unknown origin) up to 10 uM. Format: ADME.
The target of another series is Cytochrome P450 2C9 (Homo sapiens, UniProt P11712). Nature of the series: Inhibition of CYP2C9 (unknown origin) up to 10 uM. Format: ADME.
The target of the next series is T1, Cytochrome P450 1A2 (Homo sapiens, UniProt P05177).
T1 sequence (P05177 whole entry): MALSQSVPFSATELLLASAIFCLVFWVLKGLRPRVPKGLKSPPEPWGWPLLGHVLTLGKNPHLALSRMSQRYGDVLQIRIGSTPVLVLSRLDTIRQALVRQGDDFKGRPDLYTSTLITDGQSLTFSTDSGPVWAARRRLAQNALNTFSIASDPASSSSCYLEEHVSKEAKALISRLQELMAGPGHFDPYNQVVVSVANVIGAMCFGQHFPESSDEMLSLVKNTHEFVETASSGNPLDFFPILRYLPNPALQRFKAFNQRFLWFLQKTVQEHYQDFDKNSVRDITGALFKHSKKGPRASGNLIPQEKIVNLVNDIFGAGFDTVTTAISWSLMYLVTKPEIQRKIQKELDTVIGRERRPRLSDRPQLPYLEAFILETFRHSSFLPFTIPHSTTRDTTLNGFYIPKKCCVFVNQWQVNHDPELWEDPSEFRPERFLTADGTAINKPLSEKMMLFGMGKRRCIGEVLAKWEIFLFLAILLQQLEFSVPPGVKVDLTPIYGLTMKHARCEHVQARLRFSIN
In words: Inhibition of CYP1A2 (unknown origin) up to 10 uM. The class given is ADME.

The nature of series [2]: AUC (0 to 8 hrs) in Sprague-Dawley rat at 30 mg/kg, po. Format: ADME, organism-based. Particulars: plasma; call rule not given here. Also on record: time < 8 hr, dose 30 mg/kg, route oral.
Series [3] is described as follows: Cmax in Sprague-Dawley rat at 30 mg/kg, po. Also on record: dose 30 mg/kg, route oral. Conditions: in vivo. The class given is ADME, organism-based.
A short description of series [4]: Metabolic stability in rat hepatocytes assessed as compound remaining at 5 uM after 1 hr by LC-MS/MS analysis. Format: ADME, cell-based, Hepatocyte. Particulars: read-out: Stability.
Series [5] in a line: Metabolic stability in human hepatocytes assessed as compound remaining at 5 uM after 1 hr by LC-MS/MS analysis. Format: ADME, cell-based, Hepatocyte. Conditions: read-out: Stability.
Series [6] in a line: Metabolic stability in rat liver microsomes assessed as compound remaining at 5 uM after 15 mins by LC-MS/MS analysis. The class given is ADME. Particulars: read-out: Stability.
Series [7] can be described thus: Metabolic stability in human liver microsomes assessed as compound remaining at 5 uM after 15 mins by LC-MS/MS analysis. The class given is ADME. Particulars: read-out: Stability. (Microsomes from liver hold many membrane-bound enzymes, among them those of drug oxidation.)
For series [8], the system named is Escherichia coli. In words: Mutagenicity in Escherichia coli WP2uvrA up to 5000 ug/ml by Ames test in absence of rat S9 fraction. Format: toxicity, organism-based. For orientation: In the Ames test, an excess of revertant colonies over the control signals mutagenicity.
For series [9], the system named is Escherichia coli. In words: Mutagenicity in Escherichia coli WP2uvrA up to 5000 ug/ml by Ames test in presence of rat S9 fraction. Format: toxicity, organism-based.
In series [10] the test system is Salmonella typhimurium. In words: Mutagenicity in Salmonella typhimurium TA100 up to 5000 ug/ml by Ames test in absence of rat S9 fraction. Conditions: salmonella enterica subsp. enterica serovar typhimurium. The class given is toxicity, organism-based.
Series [11] deals with Phosphatidylinositol 4,5-bisphosphate 3-kinase catalytic subunit gamma isoform (Mus musculus, UniProt Q9JHG7). In words: Inhibition of PI3Kgamma in mouse RAW264.7 cells assessed as C5a-mediated PKB/Akt phosphorylation preincubated for 30 mins followed by C5a stimulation measured after 5 mins. The class given is cell-based.
Series [12] deals with Salmonella typhimurium. Nature of the series: Mutagenicity in Salmonella typhimurium TA98 up to 5000 ug/ml by Ames test in absence of rat S9 fraction. The class given is toxicity, organism-based. Particulars: salmonella enterica subsp. enterica serovar typhimurium.
In series [13] the test system is Salmonella typhimurium. Nature of the series: Mutagenicity in Salmonella typhimurium TA98 up to 5000 ug/ml by Ames test in presence of rat S9 fraction. The class given is toxicity, organism-based. Particulars: salmonella enterica subsp. enterica serovar typhimurium.
The test system of series [14] is Salmonella typhimurium. Nature of the series: Mutagenicity in Salmonella typhimurium TA100 up to 2000 ug/ml by Ames fluctuation test. The class given is toxicity, organism-based. Conditions: salmonella enterica subsp. enterica serovar typhimurium.
Series [15] concerns Salmonella typhimurium. Nature of the series: Mutagenicity in Salmonella typhimurium TA100 up to 5000 ug/ml by Ames test in presence of rat S9 fraction. Conditions: salmonella enterica subsp. enterica serovar typhimurium. The class given is toxicity, organism-based.
In series [16] the test system is Salmonella typhimurium. In words: Mutagenicity in Salmonella typhimurium TA98 up to 2000 ug/ml by Ames fluctuation test. Particulars: salmonella enterica subsp. enterica serovar typhimurium. The class given is toxicity, organism-based.

Chain of Phosphatidylinositol 4,5-bisphosphate 3-kinase catalytic subunit gamma isoform (Mus musculus, UniProt Q9JHG7) (Q9JHG7 whole entry, canonical isoform): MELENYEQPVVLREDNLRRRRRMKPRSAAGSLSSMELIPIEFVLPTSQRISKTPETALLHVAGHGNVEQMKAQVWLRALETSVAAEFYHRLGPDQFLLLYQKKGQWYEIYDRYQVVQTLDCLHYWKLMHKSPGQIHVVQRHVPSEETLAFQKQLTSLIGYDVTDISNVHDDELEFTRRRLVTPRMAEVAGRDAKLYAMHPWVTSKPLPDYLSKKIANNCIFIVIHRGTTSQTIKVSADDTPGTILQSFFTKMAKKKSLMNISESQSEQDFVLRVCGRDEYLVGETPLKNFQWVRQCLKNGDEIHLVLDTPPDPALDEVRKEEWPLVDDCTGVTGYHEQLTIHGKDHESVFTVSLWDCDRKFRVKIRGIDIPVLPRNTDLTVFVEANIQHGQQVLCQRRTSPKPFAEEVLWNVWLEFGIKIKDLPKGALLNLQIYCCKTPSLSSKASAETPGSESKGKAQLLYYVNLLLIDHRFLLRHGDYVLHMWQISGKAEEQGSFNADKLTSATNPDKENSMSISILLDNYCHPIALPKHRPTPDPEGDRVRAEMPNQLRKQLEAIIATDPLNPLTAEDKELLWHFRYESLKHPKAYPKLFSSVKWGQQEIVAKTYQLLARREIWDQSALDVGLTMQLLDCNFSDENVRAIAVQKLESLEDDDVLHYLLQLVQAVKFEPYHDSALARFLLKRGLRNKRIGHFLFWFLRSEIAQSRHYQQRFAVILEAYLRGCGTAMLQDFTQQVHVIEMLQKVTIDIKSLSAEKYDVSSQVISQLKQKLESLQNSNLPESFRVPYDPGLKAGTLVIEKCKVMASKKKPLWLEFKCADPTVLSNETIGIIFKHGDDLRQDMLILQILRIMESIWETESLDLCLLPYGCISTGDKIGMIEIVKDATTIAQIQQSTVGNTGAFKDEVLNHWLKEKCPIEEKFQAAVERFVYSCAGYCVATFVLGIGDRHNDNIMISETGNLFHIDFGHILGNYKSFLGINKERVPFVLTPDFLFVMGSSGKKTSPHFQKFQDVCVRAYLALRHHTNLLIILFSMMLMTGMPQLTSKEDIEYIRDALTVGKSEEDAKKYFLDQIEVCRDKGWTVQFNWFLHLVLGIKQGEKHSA
Chain of Phosphatidylinositol 4,5-bisphosphate 3-kinase catalytic subunit gamma isoform (Homo sapiens, UniProt P48736) (P48736 whole entry, canonical isoform): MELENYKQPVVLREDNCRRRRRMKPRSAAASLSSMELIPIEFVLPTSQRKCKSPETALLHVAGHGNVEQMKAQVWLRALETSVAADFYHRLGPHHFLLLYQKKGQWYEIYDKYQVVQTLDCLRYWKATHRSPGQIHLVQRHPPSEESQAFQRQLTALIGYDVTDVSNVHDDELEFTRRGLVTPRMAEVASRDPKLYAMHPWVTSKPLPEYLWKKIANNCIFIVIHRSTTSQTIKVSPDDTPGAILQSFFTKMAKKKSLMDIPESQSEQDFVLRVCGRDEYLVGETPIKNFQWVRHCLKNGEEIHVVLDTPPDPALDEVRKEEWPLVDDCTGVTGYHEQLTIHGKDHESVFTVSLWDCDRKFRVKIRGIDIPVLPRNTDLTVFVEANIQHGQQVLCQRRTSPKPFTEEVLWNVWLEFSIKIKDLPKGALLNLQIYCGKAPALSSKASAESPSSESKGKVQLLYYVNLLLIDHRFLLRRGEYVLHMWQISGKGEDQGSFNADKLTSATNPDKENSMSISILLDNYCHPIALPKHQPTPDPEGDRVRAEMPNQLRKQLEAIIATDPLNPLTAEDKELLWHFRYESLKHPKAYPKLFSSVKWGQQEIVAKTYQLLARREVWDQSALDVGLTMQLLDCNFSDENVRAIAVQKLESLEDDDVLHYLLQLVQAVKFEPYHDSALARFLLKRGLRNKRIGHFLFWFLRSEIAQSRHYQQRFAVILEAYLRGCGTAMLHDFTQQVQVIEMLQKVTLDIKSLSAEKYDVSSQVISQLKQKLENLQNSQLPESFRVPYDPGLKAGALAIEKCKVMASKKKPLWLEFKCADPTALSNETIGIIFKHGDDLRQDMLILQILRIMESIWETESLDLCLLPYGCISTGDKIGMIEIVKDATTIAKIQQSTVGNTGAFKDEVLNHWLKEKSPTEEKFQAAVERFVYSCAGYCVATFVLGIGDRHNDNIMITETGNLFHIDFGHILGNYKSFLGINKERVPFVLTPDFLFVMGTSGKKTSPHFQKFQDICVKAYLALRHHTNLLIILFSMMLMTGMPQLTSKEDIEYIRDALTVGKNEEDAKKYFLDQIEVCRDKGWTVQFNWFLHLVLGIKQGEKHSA
Chain of Cytochrome P450 2D6 (P10635 whole entry): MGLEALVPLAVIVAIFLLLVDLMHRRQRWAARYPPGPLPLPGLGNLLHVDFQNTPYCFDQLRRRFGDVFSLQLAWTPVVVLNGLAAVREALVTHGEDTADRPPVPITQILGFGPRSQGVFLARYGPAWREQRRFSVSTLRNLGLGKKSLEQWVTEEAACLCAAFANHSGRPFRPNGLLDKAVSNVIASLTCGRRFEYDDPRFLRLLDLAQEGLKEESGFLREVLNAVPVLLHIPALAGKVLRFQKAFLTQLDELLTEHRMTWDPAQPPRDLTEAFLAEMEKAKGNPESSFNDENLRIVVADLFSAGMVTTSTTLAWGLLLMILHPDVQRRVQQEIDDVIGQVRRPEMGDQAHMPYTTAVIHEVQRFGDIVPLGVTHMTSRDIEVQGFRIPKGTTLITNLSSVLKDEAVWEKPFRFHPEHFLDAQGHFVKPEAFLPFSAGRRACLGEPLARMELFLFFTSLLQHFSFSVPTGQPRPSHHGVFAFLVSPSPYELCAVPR
Chain of Cytochrome P450 2C9 (P11712 whole entry): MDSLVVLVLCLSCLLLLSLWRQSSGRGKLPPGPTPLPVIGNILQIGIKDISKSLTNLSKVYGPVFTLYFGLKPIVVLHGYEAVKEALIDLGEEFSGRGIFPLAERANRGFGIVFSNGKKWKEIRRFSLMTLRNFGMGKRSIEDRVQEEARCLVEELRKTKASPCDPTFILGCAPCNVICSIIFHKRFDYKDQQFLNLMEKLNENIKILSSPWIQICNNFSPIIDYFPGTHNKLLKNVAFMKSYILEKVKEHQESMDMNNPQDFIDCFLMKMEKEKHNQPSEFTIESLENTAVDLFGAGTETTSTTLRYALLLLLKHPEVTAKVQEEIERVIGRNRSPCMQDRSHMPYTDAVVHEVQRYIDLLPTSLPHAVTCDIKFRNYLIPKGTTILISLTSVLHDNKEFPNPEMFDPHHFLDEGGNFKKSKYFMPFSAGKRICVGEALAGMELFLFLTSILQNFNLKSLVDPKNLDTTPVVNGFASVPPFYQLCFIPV
Chain of Cytochrome P450 2C19 (P33261 whole entry): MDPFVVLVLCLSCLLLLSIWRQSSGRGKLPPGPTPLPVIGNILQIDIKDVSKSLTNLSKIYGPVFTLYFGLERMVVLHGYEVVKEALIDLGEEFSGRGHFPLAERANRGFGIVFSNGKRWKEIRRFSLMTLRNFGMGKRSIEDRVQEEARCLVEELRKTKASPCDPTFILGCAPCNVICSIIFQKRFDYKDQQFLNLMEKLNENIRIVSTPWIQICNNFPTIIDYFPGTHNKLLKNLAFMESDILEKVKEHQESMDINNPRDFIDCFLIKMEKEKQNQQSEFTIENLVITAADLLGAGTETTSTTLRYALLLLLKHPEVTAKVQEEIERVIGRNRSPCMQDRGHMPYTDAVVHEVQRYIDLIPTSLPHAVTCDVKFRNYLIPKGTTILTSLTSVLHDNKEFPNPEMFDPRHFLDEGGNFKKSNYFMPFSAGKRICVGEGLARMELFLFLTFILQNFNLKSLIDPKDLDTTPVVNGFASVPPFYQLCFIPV
Chain of Cytochrome P450 3A4 (P08684 whole entry): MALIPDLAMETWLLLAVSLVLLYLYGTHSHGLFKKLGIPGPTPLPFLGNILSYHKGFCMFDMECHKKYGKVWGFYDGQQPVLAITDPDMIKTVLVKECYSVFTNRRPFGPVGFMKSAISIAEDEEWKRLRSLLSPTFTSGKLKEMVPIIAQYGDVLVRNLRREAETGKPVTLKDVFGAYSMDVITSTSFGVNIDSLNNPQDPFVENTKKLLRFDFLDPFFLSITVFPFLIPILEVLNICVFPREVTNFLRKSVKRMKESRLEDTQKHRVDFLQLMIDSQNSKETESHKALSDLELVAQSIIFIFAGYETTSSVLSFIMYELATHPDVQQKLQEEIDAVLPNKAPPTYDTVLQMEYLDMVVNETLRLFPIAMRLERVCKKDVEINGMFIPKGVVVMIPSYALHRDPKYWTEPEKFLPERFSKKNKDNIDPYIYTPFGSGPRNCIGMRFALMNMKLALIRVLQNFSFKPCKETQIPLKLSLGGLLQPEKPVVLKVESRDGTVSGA

Turning to `CC(=O)Nc1nc(C)c(-c2nc(C(C)(C)CO)no2)s1`, the half-maximal inhibitory concentration (IC50) in series [1] amounted to 0.052 µM.

Take `CC(=O)Nc1nc(C)c(-c2nc(N3CCCC(O)C3)no2)s1` (stereo not drawn): the Activity entry in the series on Mus musculus is “Dose-dependent effect”; in the series with Escherichia coli [8], “Non-toxic”; with Escherichia coli [9], “Non-toxic”; in the series with Salmonella typhimurium [10], “Non-toxic”; in the series on Salmonella typhimurium [12], “Non-toxic”; in the series with Salmonella typhimurium [13] it was “Non-toxic”. The Activity result in the series on Salmonella typhimurium [14], in the series with Salmonella typhimurium [15] and in the series on Salmonella typhimurium [16] was “Non-toxic” each time. For the same compound, the “inhibition (INH)” value at Cytochrome P450 3A4, at Cytochrome P450 2D6, against Cytochrome P450 2C19, against Cytochrome P450 2C9 and on Cytochrome P450 1A2 was “Not Active” in each case. Also, the AUC(0-t) at 8 h in series [2] came out at 10.8 µg·h/mL. Further, in series [3], the highest concentration (Cmax) amounted to 3.92 µg/mL. In addition, the remaining at 1 h, 5 µM in series [4] is 62.1%; in series [5], 75.7%. Besides, the remaining at 0.25 h, 5 µM was found to be 97.1% in [6] and 96.9% in series [7]. Besides, the IC50 stood at 0.029 µM in series [1] and 0.294 µM in series [11].

In [2], `CC(=O)Nc1nc(C)c(-c2nc(CC(C)(C)C(C)O)no2)s1` (stereo not drawn) came in with an exposure AUC(0-t) at 8 h of 10.9 µg·h/mL. In [3], this compound displayed a Cmax of 7.8 µg/mL. Also, the remaining at 1 h, 5 µM in series [4] was 20.9%; in [5], 35.2%. Also, the remaining at 0.25 h, 5 µM in [6] was found to be 91.5%; in series [7] it was 94.1%. Also, the figures for the IC50 in series [1] and in series [11] were 0.017 µM and 0.155 µM, respectively.

Regarding `Cc1nc(N)sc1-c1nc(N2CCCC(O)C2)no1` (stereo not drawn), the Activity entry in the series with Escherichia coli [8], in the series on Escherichia coli [9], in the series on Salmonella typhimurium [10], with Salmonella typhimurium [12], with Salmonella typhimurium [13] and in the series on Salmonella typhimurium [14] was “Non-toxic” each time. The Activity result in the series with Salmonella typhimurium [15] and in the series with Salmonella typhimurium [16] was “Non-toxic” in each case.

As to `CC(=O)Nc1nc(C)c(-c2nc(CC(C)(C)O)no2)s1`, the IC50 in series [1] came to 0.068 µM.

With `CC(=O)Nc1nc(C)c(-c2nc(N3CCOCC3)no2)s1`, in series [1], the IC50 was 0.1 µM.

As to `Cc1nc(N)sc1-c1nc(C(C)(C)C)no1`, the 50% inhibitory concentration (IC50) in series [1] was 0.068 µM. In addition, the Activity entry with Escherichia coli [8], in the series with Escherichia coli [9], in the series with Salmonella typhimurium [10], in the series on Salmonella typhimurium [12], in the series on Salmonella typhimurium [13] and in the series with Salmonella typhimurium [14] was “Non-toxic” each time. For the same compound, the Activity entry in the series on Salmonella typhimurium [15] and with Salmonella typhimurium [16] was “Non-toxic” each time.

As to `Cc1nc(N)sc1-c1cnc(C(C)(C)C)o1`, the IC50 in series [1] worked out at 0.081 µM. For the same compound, the Activity entry with Escherichia coli [8], in the series on Escherichia coli [9], with Salmonella typhimurium [10], with Salmonella typhimurium [12], in the series on Salmonella typhimurium [13] and in the series with Salmonella typhimurium [14] was “Toxic” throughout. Moreover, the Activity result in the series on Salmonella typhimurium [15] and in the series on Salmonella typhimurium [16] was “Toxic” in each case.

Regarding `CC(=O)Nc1nc(C)c(-c2nc(CCCO)no2)s1`, in [1], the IC50 amounted to 0.121 µM.

In the case of `CC(=O)Nc1nc(C)c(-c2nc(C3CCOC3)no2)s1` (stereo not drawn), the IC50 was 0.057 µM in [1] and 0.558 µM in [11].

As for `CC(=O)Nc1nc(C)c(-c2nc(C(C)(C)C)no2)s1`, the 50% inhibitory concentration (IC50) stood at 0.014 µM in series [1] and 0.231 µM in [11].

Consider `CC(=O)Nc1nc(C)c(-c2nc(CC(C)(C)CO)no2)s1`, for which the AUC(0-t) at 8 h in series [2] amounted to 0.092 µg·h/mL. In addition, the Cmax in series [3] worked out at 0.038 µg/mL. The values for the remaining at 1 h, 5 µM in series [4] and in series [5] were 11.3% and 9.3%, respectively. In addition, the figures for the remaining at 0.25 h, 5 µM in series [6] and in series [7] were 94% and 102%, respectively. Moreover, the IC50 in series [1] amounted to 0.0072 µM; in series [11], 0.191 µM.

Take `CC(=O)Nc1nc(C)c(-c2nc(CCO)no2)s1`: the IC50 in series [1] was 0.158 µM.

In the case of `CC(=O)Nc1nc(C)c(-c2nc(CCC(C)(C)O)no2)s1`, the half-inhibitory concentration (IC50) in series [1] came to 0.203 µM.

Turning to `CC(=O)Nc1nc(C)c(-c2nc(C(C)(C)CCO)no2)s1`, the IC50 in series [1] came to 0.062 µM.

With `CC(=O)Nc1nc(C)c(-c2cnc(C(C)(C)C)o2)s1`, the Activity entry in the series with Escherichia coli [8], in the series with Escherichia coli [9], in the series with Salmonella typhimurium [10], in the series with Salmonella typhimurium [12], in the series on Salmonella typhimurium [13] and in the series on Salmonella typhimurium [15] was “Non-toxic” throughout.

As for `COCC(C)(C)Cc1noc(-c2sc(NC(C)=O)nc2C)n1`, in series [1], the IC50 was determined as 0.068 µM.

For the compound `CC(=O)Nc1nc(C)c(-c2nc(CC(F)(F)F)no2)s1`, the AUC(0-t) at 8 h in series [2] stood at 1.18 µg·h/mL. In series [3], this compound came in with a Cmax of 0.345 µg/mL. The remaining at 0.25 h, 5 µM in [6] came to 72.9%; in [7] it was 79.1%. Also, the IC50 in series [1] worked out at 0.028 µM; in series [11] it was 0.278 µM.

The term IC50 denotes the concentration at which inhibition is half-maximal. The AUC(0-t) is the area under the concentration-time curve up to a stated or last time point. Usually Cmax stands for the highest concentration seen after dosing.
